The results in this text go back to ChEMBL document CHEMBL3822396 (J Med Chem, 2016).

Active and inactive are the calls of the source. The rule behind the calls is not given here.

Series [1] concerns the target T1, Toll-like receptor 7 (Homo sapiens) (UniProt Q9NYK1).
T1 sequence (whole entry): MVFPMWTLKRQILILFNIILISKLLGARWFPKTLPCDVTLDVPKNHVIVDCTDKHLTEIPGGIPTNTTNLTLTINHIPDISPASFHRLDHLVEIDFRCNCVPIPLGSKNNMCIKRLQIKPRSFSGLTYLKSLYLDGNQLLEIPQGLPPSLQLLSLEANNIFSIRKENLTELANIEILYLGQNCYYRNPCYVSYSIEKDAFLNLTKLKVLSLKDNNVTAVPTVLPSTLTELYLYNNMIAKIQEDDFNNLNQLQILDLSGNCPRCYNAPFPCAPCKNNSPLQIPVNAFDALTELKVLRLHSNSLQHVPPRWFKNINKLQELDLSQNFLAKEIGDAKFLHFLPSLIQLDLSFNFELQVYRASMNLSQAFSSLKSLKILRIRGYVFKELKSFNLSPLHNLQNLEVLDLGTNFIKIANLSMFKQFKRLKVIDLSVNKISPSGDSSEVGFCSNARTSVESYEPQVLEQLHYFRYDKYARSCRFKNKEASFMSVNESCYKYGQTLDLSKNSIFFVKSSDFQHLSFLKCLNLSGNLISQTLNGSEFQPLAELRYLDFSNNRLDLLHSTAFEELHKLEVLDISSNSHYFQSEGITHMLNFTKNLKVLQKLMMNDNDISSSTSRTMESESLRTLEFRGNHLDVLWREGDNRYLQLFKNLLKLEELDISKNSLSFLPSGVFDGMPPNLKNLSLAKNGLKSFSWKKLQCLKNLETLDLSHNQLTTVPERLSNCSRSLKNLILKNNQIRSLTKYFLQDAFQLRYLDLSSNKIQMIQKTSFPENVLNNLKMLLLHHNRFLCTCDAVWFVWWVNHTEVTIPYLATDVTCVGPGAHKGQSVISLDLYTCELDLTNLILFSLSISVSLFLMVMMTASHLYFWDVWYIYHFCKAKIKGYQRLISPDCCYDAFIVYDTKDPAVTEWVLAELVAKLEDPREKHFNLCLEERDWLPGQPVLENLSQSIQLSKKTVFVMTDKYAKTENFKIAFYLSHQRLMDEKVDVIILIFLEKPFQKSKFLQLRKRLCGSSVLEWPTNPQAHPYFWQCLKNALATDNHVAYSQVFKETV
The series is described as follows: Activation of TLR7 receptor in human monocytes assessed as inhibition of gardiquimod-stimulated IL8 production preincubated for 30 mins prior to gardiquimod stimulation at 1 uM measured after 6 hrs by immunoassay. The class given is cell-based.

The nature of series [2]: AUC in C57BL/6 mouse at 2 mg/kg, po by LC-MS/MS analysis. It counts as ADME, organism-based. As to conditions: in vivo.
In series [3] the target is Protein-tyrosine kinase 6 (Homo sapiens) (UniProt Q13882). The series is described as follows: Inhibition of human full length N-terminal GST-tagged BRK expressed in baculovirus expression system at 1 uM.
Series [4] can be described thus: Volume of distribution at steady state in C57BL/6 mouse at 2 mg/kg, po or 1 mg/kg, iv by LC-MS/MS analysis. The class given is ADME, organism-based. The following applies: in vivo, read-out: Vdss.
Series [5] can be described thus: Cmax in C57BL/6 mouse at 2 mg/kg, po by LC-MS/MS analysis. Also on record: dose 2 mg/kg, route oral. The following applies: in vivo. The class given is ADME, organism-based.
Series [6] in a line: Oral bioavailability in Sprague-Dawley rat at 2 mg/kg by LC-MS/MS analysis. The class given is ADME, organism-based. As to conditions: in vivo.
The target in series [7] is Receptor-interacting serine/threonine-protein kinase 2 (Rattus norvegicus, UniProt G3V783). The series is described as follows: Inhibition of rat RIPK2 preincubated for 10 mins followed by addition of fluorescent-labeled 2-Methyl-5-(2-propen-l-yloxy)aniline measured after 10 mins by fluorescence polarization assay. On the technique in general: In fluorescence polarisation assays a small probe gives low polarisation when free and higher when bound to something large.

The target of series [8] is T2, Interleukin-1 receptor type 1 (Homo sapiens) (UniProt P14778).
T2 sequence (whole entry): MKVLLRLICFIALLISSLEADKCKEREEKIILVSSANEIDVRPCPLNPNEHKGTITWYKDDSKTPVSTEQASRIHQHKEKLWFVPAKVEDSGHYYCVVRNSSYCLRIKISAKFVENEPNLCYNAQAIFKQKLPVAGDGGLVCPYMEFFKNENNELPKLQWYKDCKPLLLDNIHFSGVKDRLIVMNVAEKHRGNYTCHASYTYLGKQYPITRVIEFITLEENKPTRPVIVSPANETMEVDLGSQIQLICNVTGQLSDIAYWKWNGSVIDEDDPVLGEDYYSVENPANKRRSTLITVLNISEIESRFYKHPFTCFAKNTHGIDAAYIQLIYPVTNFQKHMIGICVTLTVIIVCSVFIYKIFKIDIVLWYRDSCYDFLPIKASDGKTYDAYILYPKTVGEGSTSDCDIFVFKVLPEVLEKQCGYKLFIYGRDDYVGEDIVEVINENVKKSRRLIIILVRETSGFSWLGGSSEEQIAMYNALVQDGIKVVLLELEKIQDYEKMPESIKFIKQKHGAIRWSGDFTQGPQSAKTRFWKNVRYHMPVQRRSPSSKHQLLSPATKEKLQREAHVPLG
The series is described as follows: Activation of IL-1R in human monocytes assessed as inhibition of IL-1beta-stimulated TNF-alpha production preincubated for 30 mins prior to IL-1beta stimulation at 1 uM measured after 6 hrs by immunoassay. It counts as cell-based.

The nature of series [9]: Volume of distribution at steady state in Sprague-Dawley rat at 2 mg/kg, po or 1 mg/kg, iv by LC-MS/MS analysis. It counts as ADME, organism-based. As to conditions: in vivo, read-out: Vdss.
Series [10] can be described thus: Clearance in C57BL/6 mouse at 2 mg/kg, po or 1 mg/kg, iv by LC-MS/MS analysis. It counts as ADME, organism-based. The following applies: in vivo.
For series [11], the target named is Receptor-interacting serine/threonine-protein kinase 3 (Homo sapiens, UniProt Q9Y572). The series is described as follows: Inhibition of RIPK3 (unknown origin) preincubated for 10 mins followed by addition of fluorescent-labeled 2-Methyl-5-(2-propen-l-yloxy)aniline measured after 10 mins by fluorescence polarization assay.
The target of series [12] is Mitogen-activated protein kinase 14 (Homo sapiens, UniProt Q16539).
Sequence of Mitogen-activated protein kinase 14 (Q16539 whole entry): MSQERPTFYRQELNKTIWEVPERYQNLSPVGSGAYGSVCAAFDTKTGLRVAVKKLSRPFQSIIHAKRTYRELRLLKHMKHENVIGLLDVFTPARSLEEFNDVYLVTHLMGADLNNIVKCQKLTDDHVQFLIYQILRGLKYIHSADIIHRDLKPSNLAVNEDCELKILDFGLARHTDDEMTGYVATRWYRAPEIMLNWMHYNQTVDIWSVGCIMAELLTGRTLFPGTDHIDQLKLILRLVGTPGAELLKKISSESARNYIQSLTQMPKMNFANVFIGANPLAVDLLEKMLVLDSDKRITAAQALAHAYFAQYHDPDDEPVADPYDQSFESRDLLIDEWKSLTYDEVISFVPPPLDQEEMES

Sequence of Receptor-interacting serine/threonine-protein kinase 2 (G3V783 whole entry): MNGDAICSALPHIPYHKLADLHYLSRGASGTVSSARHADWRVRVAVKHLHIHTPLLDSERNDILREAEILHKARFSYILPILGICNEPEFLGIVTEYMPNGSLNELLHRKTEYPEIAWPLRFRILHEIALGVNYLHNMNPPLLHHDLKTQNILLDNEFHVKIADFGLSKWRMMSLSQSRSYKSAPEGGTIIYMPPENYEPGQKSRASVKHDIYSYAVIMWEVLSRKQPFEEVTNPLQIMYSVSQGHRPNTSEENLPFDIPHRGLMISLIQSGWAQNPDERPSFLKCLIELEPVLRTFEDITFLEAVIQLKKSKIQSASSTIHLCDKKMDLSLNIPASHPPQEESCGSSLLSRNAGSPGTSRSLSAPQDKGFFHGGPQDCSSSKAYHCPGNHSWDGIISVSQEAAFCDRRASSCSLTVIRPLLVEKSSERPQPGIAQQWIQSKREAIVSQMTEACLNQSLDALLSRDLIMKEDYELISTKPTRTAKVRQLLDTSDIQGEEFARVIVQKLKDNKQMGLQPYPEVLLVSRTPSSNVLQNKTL
Sequence of Receptor-interacting serine/threonine-protein kinase 3 (Q9Y572 whole entry): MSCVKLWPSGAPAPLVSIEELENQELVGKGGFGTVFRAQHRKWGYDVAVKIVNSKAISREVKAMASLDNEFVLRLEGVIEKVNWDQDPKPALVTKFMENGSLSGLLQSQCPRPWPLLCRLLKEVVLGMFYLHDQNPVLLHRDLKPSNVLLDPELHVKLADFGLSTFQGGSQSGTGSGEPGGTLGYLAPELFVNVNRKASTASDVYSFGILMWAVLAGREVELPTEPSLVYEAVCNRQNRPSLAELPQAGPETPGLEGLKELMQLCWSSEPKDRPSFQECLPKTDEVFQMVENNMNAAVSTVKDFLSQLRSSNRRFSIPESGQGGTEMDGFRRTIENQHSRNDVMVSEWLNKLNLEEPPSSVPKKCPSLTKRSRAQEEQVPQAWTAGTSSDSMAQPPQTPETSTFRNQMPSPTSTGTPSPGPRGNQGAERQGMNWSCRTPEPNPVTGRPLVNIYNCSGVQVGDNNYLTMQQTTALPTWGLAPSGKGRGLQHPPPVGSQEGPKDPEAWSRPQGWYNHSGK
Sequence of Protein-tyrosine kinase 6 (Homo sapiens) (Q13882 whole entry, looked up): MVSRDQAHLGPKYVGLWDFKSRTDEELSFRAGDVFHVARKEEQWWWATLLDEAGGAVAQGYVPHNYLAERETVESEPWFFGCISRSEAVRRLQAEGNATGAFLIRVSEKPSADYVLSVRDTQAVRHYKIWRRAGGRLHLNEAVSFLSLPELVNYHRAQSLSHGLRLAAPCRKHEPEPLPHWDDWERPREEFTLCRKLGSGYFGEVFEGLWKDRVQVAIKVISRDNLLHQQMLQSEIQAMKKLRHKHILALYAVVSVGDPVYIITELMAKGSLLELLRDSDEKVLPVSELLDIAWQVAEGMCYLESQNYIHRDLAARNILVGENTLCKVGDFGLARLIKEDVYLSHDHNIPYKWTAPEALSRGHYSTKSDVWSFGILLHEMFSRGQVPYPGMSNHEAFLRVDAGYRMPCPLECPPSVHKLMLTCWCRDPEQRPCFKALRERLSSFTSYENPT

As a reminder, the inhibition is the relative decrease from the control value, in per cent. Usually AUC stands for concentration integrated over time. The low end stands for low exposure, the high end for high exposure. What is called Cmax is the peak of the concentration-time curve. The bioavailability is dose-corrected exposure relative to a reference, in per cent. What is called IC50 is the concentration that gives 50% inhibition. Low values mean greater potency in that assay, high ones weaker potency in that assay. In the case of `CC(C)(C)S(=O)(=O)c1ccc2nccc(Nc3n[nH]c4ccc(F)cc34)c2c1`, the inhibition result in series [1] and in series [8] was “Active” throughout. Moreover, the AUC in series [2] was 860 ng·h/mL. The molecule also displayed an inhibition in series [3] of 30%. For the same molecule, the Vd in series [4] was found to be 1.2 L/kg; in [9], 2 L/kg. The same molecule had a Cmax in series [5] of 340 ng/mL. The same molecule returned a bioavailability in series [6] of 39%. Moreover, the IC50 in series [7] is 0.002 µM; in series [11], 0.016 µM; in series [12] it was 5.12 µM. Besides, the clearance in [10] is 13 mL/min/kg.
